Data reported in ChEMBL document CHEMBL3046171, “Synthesis and biological evaluation of gallic acid analogs” (Med Chem Res, 2013).
Activity calls are given as the source filed them. No cut-off for these calls is given here.

Experiments:
[1] = tested on: CHO; test: Antioxidant activity in Cricetulus griseus CHO (Chinese hamster ovary) cells assessed as proportion of H2O2-induced chromosomal aberrations bearing cells at 200 uM pre-incubated with H202 for 1 hr prior to cell addition by Giemsa staining; type: functional
[2] = tested on: CHO; test: Antioxidant activity in Cricetulus griseus CHO (Chinese hamster ovary) cells assessed as protection against H2O2-induced chromosomal aberrations treated for 15 min prior to H2O2 addition measured after 2 hr by Giemsa staining; type: functional, cell-based
[3] = tested on: CHO; test: Genotoxicity in Cricetulus griseus CHO (Chinese hamster ovary) cells assessed as increase in frequencies of sister chromatid exchange bearing cells at 0.5 to 2 mM by fluorescence-plus-Giemsa technique; type: toxicity, cell-based; conditions: 2000 µM
[4] = tested on: CHO; test: Genotoxicity in Cricetulus griseus CHO (Chinese hamster ovary) cells assessed as increase in frequencies of chromosomal aberrations bearing cells at 0.5 to 2 mM by Giemsa staining; type: toxicity, cell-based; conditions: 2000 µM
[5] = tested on: CHO; test: Genotoxicity in Cricetulus griseus CHO (Chinese hamster ovary) cells assessed as slight increase in frequencies of sister chromatid exchange bearing cells at 200 uM by fluorescence-plus-Giemsa technique; type: toxicity, cell-based
[6] = tested on: CHO; test: Genotoxicity in Cricetulus griseus CHO (Chinese hamster ovary) cells assessed as effect on frequencies of sister chromatid exchange bearing cells at <200 uM by fluorescence-plus-Giemsa technique; type: toxicity, cell-based
[7] = tested on: CHO; test: Genotoxicity in Cricetulus griseus CHO (Chinese hamster ovary) cells assessed as effect on frequencies of chromosomal aberrations bearing cells at <200 uM by Giemsa staining; type: toxicity, cell-based
[8] = tested on: CHO; test: Cytotoxicity against Cricetulus griseus CHO (Chinese hamster ovary) cells assessed as frequency of third generation of mitotic cells at 1000 uM treated for 3 hr by BrdU assay (reference value: 0%); type: cell-based
[9] = tested on: CHO; test: Cytotoxicity against Cricetulus griseus CHO (Chinese hamster ovary) cells assessed as frequency of third generation of mitotic cells at 200 uM treated for 3 hr by BrdU assay (reference value: 0%); type: cell-based
[10] = tested on: CHO; test: Cytotoxicity against Cricetulus griseus CHO (Chinese hamster ovary) cells assessed as frequency of third generation of mitotic cells at 100 uM treated for 3 hr by BrdU assay (reference value: 0%); type: cell-based
[11] = tested on: CHO; test: Cytotoxicity against Cricetulus griseus CHO (Chinese hamster ovary) cells assessed as frequency of third generation of mitotic cells at 50 uM treated for 3 hr by BrdU assay (reference value: 0%); type: cell-based
[12] = tested on: CHO; test: Cytotoxicity against Cricetulus griseus CHO (Chinese hamster ovary) cells assessed as frequency of second generation of mitotic cells at 1000 uM treated for 3 hr by BrdU assay (reference value: 90%); type: cell-based
[13] = tested on: CHO; test: Cytotoxicity against Cricetulus griseus CHO (Chinese hamster ovary) cells assessed as frequency of second generation of mitotic cells at 200 uM treated for 3 hr by BrdU assay (reference value: 90%); type: cell-based
[14] = tested on: CHO; test: Cytotoxicity against Cricetulus griseus CHO (Chinese hamster ovary) cells assessed as frequency of second generation of mitotic cells at 100 uM treated for 3 hr by BrdU assay (reference value: 90%); type: cell-based
[15] = tested on: CHO; test: Cytotoxicity against Cricetulus griseus CHO (Chinese hamster ovary) cells assessed as frequency of second generation of mitotic cells at 50 uM treated for 3 hr by BrdU assay (reference value: 90%); type: cell-based
[16] = tested on: CHO; test: Cytotoxicity against Cricetulus griseus CHO (Chinese hamster ovary) cells assessed as frequency of first generation of mitotic cells at 1000 uM treated for 3 hr by BrdU assay (reference value: 10%); type: cell-based
[17] = tested on: CHO; test: Cytotoxicity against Cricetulus griseus CHO (Chinese hamster ovary) cells assessed as frequency of first generation of mitotic cells at 200 uM treated for 3 hr by BrdU assay (reference value: 10%); type: cell-based
[18] = tested on: CHO; test: Cytotoxicity against Cricetulus griseus CHO (Chinese hamster ovary) cells assessed as frequency of first generation of mitotic cells at 100 uM treated for 3 hr by BrdU assay (reference value: 10%); type: cell-based
[19] = tested on: CHO; test: Cytotoxicity against Cricetulus griseus CHO (Chinese hamster ovary) cells assessed as frequency of first generation of mitotic cells at 50 uM treated for 3 hr by BrdU assay (reference value: 10%); type: cell-based
[20] = tested on: CHO; test: Cytotoxicity against Cricetulus griseus CHO (Chinese hamster ovary) cells assessed as proliferative replication index at 1000 uM treated for 3 hr by BrdU assay relative to untreated control (reference value: 100%); type: cell-based
[21] = tested on: CHO; test: Cytotoxicity against Cricetulus griseus CHO (Chinese hamster ovary) cells assessed as proliferative replication index at 200 uM treated for 3 hr by BrdU assay relative to untreated control (reference value: 100%); type: cell-based
[22] = tested on: CHO; test: Cytotoxicity against Cricetulus griseus CHO (Chinese hamster ovary) cells assessed as proliferative replication index at 100 uM treated for 3 hr by BrdU assay relative to untreated control (reference value: 100%); type: cell-based
[23] = tested on: CHO; test: Cytotoxicity against Cricetulus griseus CHO (Chinese hamster ovary) cells assessed as proliferative replication index at 50 uM treated for 3 hr by BrdU assay relative to untreated control (reference value: 100%); type: cell-based
[24] = tested on: CHO; test: Cytotoxicity against Cricetulus griseus CHO (Chinese hamster ovary) cells assessed as mitotic index at 1000 uM treated for 3 hr by Giemsa staining based light microscopic analysis relative to untreated control (reference value: 100%); type: cell-based
[25] = tested on: CHO; test: Cytotoxicity against Cricetulus griseus CHO (Chinese hamster ovary) cells assessed as mitotic index at 500 uM treated for 3 hr by Giemsa staining based light microscopic analysis relative to untreated control (reference value: 100%); type: cell-based
[26] = tested on: CHO; test: Cytotoxicity against Cricetulus griseus CHO (Chinese hamster ovary) cells assessed as mitotic index at 200 uM treated for 3 hr by Giemsa staining based light microscopic analysis relative to untreated control (reference value: 100%); type: cell-based
[27] = tested on: CHO; test: Cytotoxicity against Cricetulus griseus CHO (Chinese hamster ovary) cells assessed as mitotic index at 100 uM treated for 3 hr by Giemsa staining based light microscopic analysis relative to untreated control (reference value: 100%); type: cell-based
[28] = tested on: CHO; test: Cytotoxicity against Cricetulus griseus CHO (Chinese hamster ovary) cells assessed as mitotic index at 50 uM treated for 3 hr by Giemsa staining based light microscopic analysis relative to untreated control (reference value: 100%); type: cell-based

Compound | Activity [1] | Activity [2] | Activity [3] | Activity [4] | Activity [5] | Activity [6] | Activity [7] | Activity [8] | Activity [9] | Activity [10] | Activity [11] | Activity [12] | Activity [13] | Activity [14] | Activity [15] | Activity [16] | Activity [17] | Activity [18] | Activity [19] | Activity [20] | other results
COCCc1cc(O)c(O)c(O)c1 | 5% | Active | Toxic | Toxic | Toxic | Non-toxic | Non-toxic | 0% | 0% | 0% | 0% | 0% | 66% | 82% | 94% | 0% | 34% | 18% | 6% | 0% | Activity [21]: 87%; Activity [22]: 96%; Activity [23]: 102%; Activity [24]: 0%; Activity [25]: 15.6%; Activity [26]: 87.7%; Activity [27]: 80.8%; Activity [28]: 79.1%
OCCc1cc(O)c(O)c(O)c1 [3,4,5-TRIHYDROXYPHENETHYL ALCOHOL] | 5% | Active | Toxic | Toxic | Toxic | Non-toxic | Non-toxic | 0% | 0% | 0% | 0% | 0% | 50% | 75% | 92% | 0% | 50% | 25% | 8% | 0% | Activity [21]: 79%; Activity [22]: 92%; Activity [23]: 100%; Activity [24]: 0%; Activity [25]: 4.3%; Activity [26]: 58.3%; Activity [27]: 99.1%; Activity [28]: 96.5%
